Measured values from article PMC2929268 (The Journal of organic chemistry, 2010).

Legend:
[1] = biological target: T1, hMC4R (Homo sapiens, UniProt P32245); experiment: Assay A: europium-based competitive binding assay with probe 17; conditions: over the range of concentrations tested
[2] = biological target: T1, hMC4R; experiment: Assay B: europium-based competitive binding assay with probe 18; conditions: over the range of concentrations tested

T1 sequence (P32245 whole entry): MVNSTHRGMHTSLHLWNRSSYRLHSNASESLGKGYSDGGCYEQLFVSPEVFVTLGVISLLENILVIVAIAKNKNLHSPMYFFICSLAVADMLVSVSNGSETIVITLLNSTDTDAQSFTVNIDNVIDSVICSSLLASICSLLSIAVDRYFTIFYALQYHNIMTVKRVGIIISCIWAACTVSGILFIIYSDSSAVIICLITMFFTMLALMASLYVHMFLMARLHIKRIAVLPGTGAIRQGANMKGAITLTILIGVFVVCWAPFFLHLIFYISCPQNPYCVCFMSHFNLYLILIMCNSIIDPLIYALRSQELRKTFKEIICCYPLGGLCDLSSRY

**Q.** For CCCCc1cn(CCCCCC(=O)NC(CO)C(N)=O)nn1 (centres unmarked) [Compound 11, N-(1-Amino-3-hydroxy-1-oxopropan-2-yl)-6-(4-butyl-1H-1,2,3-triazol-1-yl)hexanamide], which “blocking probe 17 from binding to hMC4R” value [1] is on record?
**A.** The value was “ineffective”.

**Q.** And the “blocking probe 18 from binding to hMC4R” value [2]?
**A.** Its value is “ineffective”.
